Experiments:
[1] = target: T1, angiotensin II type 1 receptor (Oryctolagus cuniculus, UniProt P34976); assay: Angiotensin II antagonistic activity in isolated rabbit blood vessels; conditions: angiotensin II (10 nM)-induced contraction of rabbit thoracic aorta ring; read-out: Angiotensin II 50% inhibition concentration
T1 construct: By using a specimen of isolated rabbit blood vessels; from tissue; host or cells: rabbit (New Zealand White) thoracic aorta ring
T1 sequence (P34976 1-359): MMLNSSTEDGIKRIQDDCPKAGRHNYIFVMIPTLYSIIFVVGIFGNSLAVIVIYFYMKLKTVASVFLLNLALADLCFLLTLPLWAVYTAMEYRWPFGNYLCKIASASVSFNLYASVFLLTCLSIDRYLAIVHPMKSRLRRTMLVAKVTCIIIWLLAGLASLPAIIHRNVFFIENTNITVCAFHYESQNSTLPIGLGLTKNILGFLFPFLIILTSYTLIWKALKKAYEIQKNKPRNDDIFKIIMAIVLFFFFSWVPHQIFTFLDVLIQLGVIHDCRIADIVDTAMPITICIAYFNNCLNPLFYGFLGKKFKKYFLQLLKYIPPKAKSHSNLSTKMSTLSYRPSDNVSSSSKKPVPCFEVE
From the text: Angiotensin II Antagonistic Activity in Isolated Rabbit Blood Vessels
By using a specimen of isolated rabbit blood vessels, antagonistic activity of the compounds of the invention against angiotensin II type 1 receptor was estimated from a dose-response curve of angiotensin II-induced blood vessel contraction. Specifically, the specimen of thoracic aorta ring of a rabbit (New Zealand White: male, 2.4 to 3.0 kg) was suspended in a magnus bath filled with Krebs-Henseleite buffer (composition: 118 mM NaCl, 4.7 mM KCl, 2.55 mM CaCl2, 1.18 mM MgSO4, 1.18 mM KH2PO4, 24.88 mM NaHCO3, and 11.1 mM D-glucose), and angiotensin II (10 nM)-induced contraction was obtained in the presence of the compounds of each Example (1 nmol/L to 10 μmol/L). During the measurement, the inside temperature of the magnus bath was maintained at 37° C. and the bath was continuously ventilated with a sufficient amount of mixed gas (95% O2 and 5% CO2). The angiotensin II-induced contraction was converted into a relative value (%) that is based on the angiotensin II (10 nM)-induced contraction in the absence of the compounds of each Example. From the concentration-response curve obtained therefrom, 50% inhibition concentration (IC50 value) was calculated by using SAS Preclinical Package Ver 5.0 (trade name, manufactured by SAS institute Japan Co., Tokyo, Japan), which is a statistical analysis program. As described in the Table 1, it was confirmed that the compounds of the invention have a potent angiotensin II antagonistic activity.

human PPARγ2 = target: T2, human PPARγ2 (Homo sapiens, UniProt P37231); assay: PPARγ activation activity, Gal4-PPARγ2 LBD luciferase transfection assay in COS7 cells; format: cell-based; conditions: Gal4-human PPARγ2 LBD chimera, luciferase reporter, 16 hours
T2 construct: the amino acids 182 to 505 of human PPARγ2; expressed in transfected cells; host or cells: COS7 cells (African green monkey kidney)
T2 sequence (P37231 182-505): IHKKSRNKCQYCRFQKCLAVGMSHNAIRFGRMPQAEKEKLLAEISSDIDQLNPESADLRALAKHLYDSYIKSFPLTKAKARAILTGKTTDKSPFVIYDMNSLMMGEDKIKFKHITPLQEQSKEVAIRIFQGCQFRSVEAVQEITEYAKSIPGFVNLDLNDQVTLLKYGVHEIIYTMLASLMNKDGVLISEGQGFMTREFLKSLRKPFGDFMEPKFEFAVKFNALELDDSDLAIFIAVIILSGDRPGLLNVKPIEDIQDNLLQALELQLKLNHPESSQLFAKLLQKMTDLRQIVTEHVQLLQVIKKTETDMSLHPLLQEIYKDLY
Protocol: PPARγ Activation Activity
The agonistic activity of the compounds of the invention on PPARγ was measured based on the transfection assay using COS7 cells (DS Pharma Biomedical Co., Ltd., Osaka, Japan), which are the cell line derived from the kidney of the African green monkey. COS7 cells were cultured under 5% CO2 concentration, and DMEM medium containing 10% fetal bovine serum, glutamic acid, and antibiotics was used as a medium.
As an expression vector, a chimera in which DNA binding domain of Gal4, which is a yeast transcription factor, and ligand binding domain of human PPARγ2 are fused, i.e., a fused product between the amino acids 1 to 147 of Gal4 transcription factor and the amino acids 182 to 505 of human PPARγ2, was used. Furthermore, as a reporter vector, a firefly luciferase containing five copies of Gal4 recognition sequence in the promoter region was used. Plasmid transfection to the cells was performed according to a method which uses jetPEI (trade name, manufactured by Funakoshi Co., Ltd., Tokyo, Japan). Furthermore, β-galactosidase expression vector was employed as an internal standard.
After the transfection of the cells, the medium was replaced with a DMEM medium (containing […]) added with the test compound, and the cells were further cultured for 16 hours. After that, the luciferase activity and β-galactosidase activity in the cell lysis solution were measured.
For the present test, dimethyl sulfoxide (DMSO) was used for dissolution and dilution of the test compounds, and during the cell treatment, the DMSO concentration in DMEM medium (containing 1% serum) was adjusted to 0.1%. The 50% effective concentration of the test compound (EC50, 50% effect concentration) was calculated by using SAS Preclinical Package Ver 5.0 (trade name, manufactured by SAS institute Japan Co., Tokyo, Japan), which is a statistical analysis program.

Row | IC50 [1] [µM] | EC50 (human PPARγ2) [µM] | SMILES
1 | 0.8 | 3.43 | CCCCc1nc(-c2ccc(F)cc2)c(C(N)=O)n1Cc1ccc(-c2ccccc2-c2noc(=O)[nH]2)cc1 [Example 10, 2-butyl-4-(4-fluorophenyl)-1-({2′-(5-oxo-4,5-dihydro-1,2,4-oxadiazol-3-yl)biphenyl-4-yl}methyl)-1H-imidazole-5-carboxamide]
2 |  | 1.52 | CCCCc1nc(-c2ccc(F)cc2)c(CO)n1Cc1ccc(-c2ccccc2-c2noc(=O)[nH]2)cc1 [Example 1, 3-[4′-[{2-butyl-4-(4-fluorophenyl)-5-(hydroxymethyl)-1H-imidazol-1-yl}methyl]biphenyl-2-yl]-1,2,4-oxadiazol-5(4H)-one]
3 | 1.04 | 1.48 | CCCCc1nc(-c2ncc(OCC)cn2)c(CO)n1Cc1ccc(-c2ccccc2-c2noc(=O)[nH]2)cc1 [Example 4, 3-[4′-[{2-butyl-4-(5-ethoxypyrimidin-2-yl)-5-(hydroxymethyl)-1H-imidazol-1-yl}methyl]-biphenyl-2-yl]-1,2,4-oxadiazol-5(4H)-one]
4 | 6.94 | 0.56 | CCCCc1nc(-c2ncc(OCC)cn2)c(C(=O)OC)n1Cc1ccc(-c2ccccc2-c2noc(=O)[nH]2)cc1 [Example 6, methyl 2-butyl-4-(5-ethoxypyrimidin-2-yl)-1-[{2′-(5-oxo-4,5-dihydro-1,2,4-oxadiazol-3-yl)biphenyl-4-yl}methyl]-1H-imidazole-5-carboxylic acid]
5 | 5.69 | 2.28 | CCCCc1nc(-c2ccc(F)cc2)c(C(=O)NCC)n1Cc1ccc(-c2ccccc2-c2noc(=O)[nH]2)cc1 [Example 11, 2-butyl-N-ethyl-4-(4-fluorophenyl)-1-[{2′-(5-oxo-4,5-dihydro-1,2,4-oxadiazol-3-yl)biphenyl-4-yl}methyl]-1H-imidazole-5-carboxamide]
6 | 1.6 | 4.32 | CCCCc1nc(-c2ccc(F)cc2)c(C(=O)N2CCOCC2)n1Cc1ccc(-c2ccccc2-c2nnn[nH]2)cc1 [Example 18, [1-[{2′-(1H-tetrazol-5-yl)biphenyl-4-yl}methyl]-2-butyl-4-(4-fluorophenyl)-1H-imidazol-5-yl](morpholino)methanone]
7 | 0.46 |  | CCCCc1nc(-c2ccc(F)cc2)c(C(N)=O)n1Cc1ccc(-c2ccccc2-c2nnn[nH]2)cc1 [Example 15, 1-[{2′-(1H-tetrazol-5-yl)biphenyl-4-yl}methyl]-2-butyl-4-(4-fluorophenyl)-1H-imidazole-5-carboxamide]

The remaining lines, values behind:

Row | SMILES | IC50 [1] [µM] | EC50 (human PPARγ2) [µM]
8 | CCCCc1nc(-c2ncc(OCC)cn2)c(CO)n1Cc1ccc(-c2ccccc2-c2nnn[nH]2)cc1 [Example 5, [1-[{2′-(1H-tetrazol-5-yl)biphenyl-4-yl}methyl]-2-butyl-4-(5-ethoxypyrimidin-2-yl)-1H-imidazol-5-yl]methanol] | 0.77 | 
9 | CCCCc1nc(-c2ccc(F)cc2)c(C(=O)OC)n1Cc1ccc(-c2ccccc2-c2noc(=O)[nH]2)cc1 [Example 2, methyl 2-butyl-4-(4-fluorophenyl)-1-[{2′-(5-oxo-4,5-dihydro-1,2,4-oxadiazol-3-yl)biphenyl-4-yl}methyl]-1H-imidazole-5-carboxylic acid] | 4.07 | 
10 | CCCCc1nc(-c2ncc(OCC)cn2)c(C(=O)OC)n1Cc1ccc(-c2ccccc2-c2nnn[nH]2)cc1 [Example 8, methyl 1-[{2′-(1H-tetrazol-5-yl)biphenyl-4-yl}methyl]-2-butyl-4-(5-ethoxypyrimidin-2-yl)-1H-imidazole-5-carboxylic acid] | 1.01 | 3.01
11 | CCCCc1nc(-c2ccc(F)cc2)c(C(=O)NCC)n1Cc1ccc(-c2ccccc2-c2nnn[nH]2)cc1 [Example 16, 1-[{2′-(1H-tetrazol-5-yl)biphenyl-4-yl}methyl]-2-butyl-N-ethyl-4-(4-fluorophenyl)-1H-imidazole-5-carboxamide] | 0.99 | 
12 | CCCCc1nc(-c2ccc(F)cc2)c(C(=O)N2CCCC2)n1Cc1ccc(-c2ccccc2-c2nnn[nH]2)cc1 [Example 19, [1-[{2′-(1H-tetrazol-5-yl)biphenyl-4-yl}methyl]-2-butyl-4-(4-fluorophenyl)-1H-imidazol-5-yl](pyrrolidin-1-yl)methanone] | 6.98 | 
13 | CCCCc1nc(-c2ccc(F)cc2)c(C(=O)N(CC)CC)n1Cc1ccc(-c2ccccc2-c2noc(=O)[nH]2)cc1 [Example 12] |  | 2.37
14 | CCCc1nc2c(C)cc(-c3nc4ccccc4n3C)cc2n1Cc1ccc(-c2ccccc2C(=O)O)cc1 [telmisartan, reference compound] |  | 1 to 5
15 | CCCCc1nc(-c2ccc(F)cc2)c(C(=O)N(CC)CC)n1Cc1ccc(-c2ccccc2-c2nnn[nH]2)cc1 [Example 17, 1-[{2′-(1H-tetrazol-5-yl)biphenyl-4-yl}methyl]-2-butyl-N,N-diethyl-4-(4-fluorophenyl)-1H-imidazole-5-carboxamide] |  | 3.3

Source: patent US20120264753A1, “NOVEL 1-(BIPHENYL-4-YL-METHYL)-1H-IMIDAZOLE DERIVATIVE AND PHARMACEUTICAL PRODUCT CONTAINING SAME” (KOWA COMPANY, LTD., priority 2009, published 2012)
